In paper PMC7515829, “HKDC1 C-terminal based peptides inhibit extranodal natural killer/T-cell lymphoma by modulation of mitochondrial function and EBV suppression” (Leukemia, 2020):
Ends that are not written are not given here.

Legend:
SNK6 cells [1] = conditions: read-out: IC50 (µM) SNK6, half-maximal cell death activity; SNK6 cells; peptides 0.1–15 µM, 6 h; PI staining, FACS; mean ± SEM, n in cell (Table 1)
From the text: (§1) We investigated the potential role of HKDC1-based peptides in ENKTL cells that were isolated from the MNCs of ENKTL patients or SNK6 cell line. Three different kinds of HKDC1-based targeting peptides, including the last 15 aa at either the N-terminal (HKN15) or C-terminal (HKC15), or the last eight aa at the C-terminal (HKC8) were selected; four different kinds of cell-penetrating sequences were employed to deliver the HKDC1-based peptides, including Antp (a 16 penetrating residue long sequence from the Drosophila antennapedia-homeodomain), penetration-accelerating segment, TAT (HIV-1 TAT sequence), and Tf (the Tf receptor (TfR) internalization sequence) sequences. All of the aa with the D-configuration (marked as D) were synthesized as retro-inverso peptides. […] We then evaluated the toxic effect of two peptides (including Tf-D-HKC15 and Tf-D-HKC8) on different kinds of primary and cancer cell lines (see details in Table 2). […] We also evaluated the peptide delivery efficiency using ^125I-labeled uptake assay for both Tf-D-HKC8 and Tf-D-HKC15 peptides.
(§2) Measurement of apoptosis and cell death. Apoptosis was evaluated by TUNEL assay using the In Situ Cell Death Detection Kit™ (Roche). Cells were fixed in 4% paraformaldehyde and labeled with TUNEL reagents. Stained cells were photographed by a fluorescence microscope (11). For cell death analysis, the propidium iodide (PI) staining was performed by addition of 6.25 µg/ml of PI to the cells, and cell death was immediately evaluated by FACS analysis (3).

MNCs from ENKTL patients = conditions: read-out: IC50 (µM) ENKTL, half-maximal cell death activity, peptides 0.1–15 µM, 6 h, PI staining, FACS, mean ± SEM, n in cell
From the text: as §1, §2

SNK6 xenograft [2] = assay: Mouse survival, Kaplan–Meier analysis; type: in vivo; conditions: nude mice, intratumoral 50 µM peptide every 2 days from day ~18, compared with CTL group, n = 9
Method: Statistical analysis. The data was given as mean ± SEM; all of the experiments were performed at least in quadruplicate unless otherwise indicated. One-way ANOVA followed by the Bonferroni post hoc test was used to determine statistical significance of different groups. The mouse survival curve was determined through Kaplan-Meier survival analysis using SPSS 22 software, and a P value < 0.05 was considered significant (8).

HKDC1/VDAC1 = HKDC1/VDAC1 (Homo sapiens, UniProt P21796); assay: IP/WB association of HKDC1 with VDAC1 in SNK6 cells; type: cell-based; set-up: endogenous in cells; host or cells: SNK6; conditions: 0.5 µM peptide, 6 h, vs CTL, n = 5 (Fig. 4c, d)
Sequence of HKDC1/VDAC1 (P21796 2-283 limits assumed): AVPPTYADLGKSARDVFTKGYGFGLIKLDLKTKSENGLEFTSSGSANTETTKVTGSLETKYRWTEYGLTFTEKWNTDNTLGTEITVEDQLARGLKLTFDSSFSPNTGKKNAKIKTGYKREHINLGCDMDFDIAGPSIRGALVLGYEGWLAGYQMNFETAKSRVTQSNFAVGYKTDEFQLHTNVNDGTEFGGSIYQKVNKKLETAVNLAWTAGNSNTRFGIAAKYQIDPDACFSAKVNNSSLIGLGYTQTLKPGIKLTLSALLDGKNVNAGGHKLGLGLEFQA
Method: Immunoprecipitation (IP) and Western Blotting (WB). Cell lysates were pre-cleared by pre-immune IgG plus Protein A agarose beads for 2 hours, and the supernatants were immunoprecipitated by the indicated antibodies and a 50% slurry of Protein A Agarose beads overnight at 4 °C (9). After washing with buffer containing 50 mM Tris, pH 7.5, 150 mM NaCl, 1% NP-40, and 0.5% deoxycholate with protease inhibitors, proteins were released, separated on 10% SDS-PAGE gels, blotted by primary antibodies, and then simultaneously incubated with the differentially labeled species-specific secondary antibodies, anti-RABBIT IRDye™ 800CW (green) and anti-MOUSE (or goat) ALEXA680 (red). Membranes were scanned and quantitated by the ODYSSEY Infrared Imaging System (LI-COR, NE) (10).

SNK6 cells [3] = assay: γH2AX formation (western blot); type: cell-based, human; conditions: 0.5 µM peptide, 6 h, vs CTL, n = 5 (Fig. 3d)
Method: (§3) Measurement of DNA breaks. 8-OHdG formation was measured using an OxiSelect™ Oxidative DNA Damage ELISA Kit (Cat No. STA320, from Cell Biolabs Inc.) per manufacturers’ instructions. The formation of γH2AX was measured from nuclear extracts by western blotting using H2AX as the input control (8).

SNK6 cells [4] = assay: Cell proliferation by thymidine incorporation; type: cell-based, human; conditions: 0.5 µM peptide, 6 h, vs CTL, n = 5 (Fig. 5a)
Method: DNA synthesis by [^3H]-thymidine incorporation. Cell proliferation was evaluated as the rate of DNA synthesis by [^3H]-methylthymidine incorporation (17). […] At the end of the treatment, cells were incubated with serum-free media containing ^3H-methylthymidine (0.5 µCi/well) for 2 hours and then washed twice with PBS. Cellular DNA was precipitated using 10% trichloroacetic acid and solubilized with 0.4M NaOH (0.5 ml/well). Incorporation of ^3H-methylthymidine into the DNA was measured in a scintillation counter and was determined as counts per minute (CPM) (8).

SNK6 xenograft [5] = assay: SNK6 xenograft tumor volume; type: in vivo, mouse; conditions: nude mice, n = 5
Method: To measure malignant SNK6 xenograft growth, 100 µl of 1 × 10^5 SNK6 cells in PBS were mixed with 100 µl growth factor-reduced basement membrane matrix (Matrigel™, BD Biosciences) resulting in 200 µl of solution that was injected subcutaneously along the mouse flank at each intended tumor site. Tumor size was measured using a digital caliper and volume was calculated, and mice were randomly divided into four groups (n = 9 per group) when the tumor volume reached 50–100 mm^3 on day ~18 after tumor inoculation and given treatment as follows: Group 1 (control (CTL)) was intratumorally injected with HBSS buffer (5.33 mM KCl, 0.44 mM KH2PO4, 138 mM NaCl, 4 mM NaHCO3, 0.3 mM Na2HPO4, and 5.6 mM glucose, pH 7.3) containing 0.05% DMSO; Group 2 (Tf-D-HKN15) received HBSS buffer containing 0.05% DMSO with 50 µM Tf-D-HKN15 peptides; Group 3 (Tf-D-HKC15) received HBSS buffer containing 0.05% DMSO with 50 µM Tf-D-HKC15 peptides; Group 4 (Tf-D-HKC8) received HBSS buffer containing 0.05% DMSO with 50 µM Tf-D-HKC8 peptides. The xenografts were injected (two points, 20 µl per tumor) every 2 days. Beginning on the day of inoculation, mouse weight and tumor volume were monitored every 2 days. Mice were monitored for changes in body weight and sacrificed when values fell below 20% of their initial weight; the survival curve was calculated and the final tumor tissues were isolated for biomedical analysis.
To measure the malignant SNK6 xenograft growth, the 100µl of 1x10^5 SNK6 cells in PBS were mixed with 100µl growth factor-reduced basement membrane matrix (Matrigel™, BD Biosciences) resulting in 200µl of solution that was injected subcutaneously along the mouse flank at each intended tumor site. Tumor size was measured using a digital caliper and volume was calculated, and mice were randomly divided into 4 groups (n=9 per group) when the tumor volume reached 50-100 mm^3 on day ~18 after tumor inoculation: Group 1 (CTL) was intratumorally injected with HBSS buffer (5.33 mM KCl, 0.44 mM KH2PO4, 138 mM NaCl, 4 mM NaHCO3, 0.3 mM Na2HPO4, and 5.6 mM glucose, pH 7.3) containing 0.05% DMSO; Group 2 (Tf-D-HKN15) received HBSS buffer containing 0.05% DMSO with 50 µM Tf-D-HKN15 peptides; Group 3 (Tf-D-HKC15) received HBSS buffer containing 0.05% DMSO with 50 µM Tf-D-HKC15 peptides; Group 4 (Tf-D-HKC8) received HBSS buffer containing 0.05% DMSO with 50 µM Tf-D-HKC8 peptides. The xenografts were injected (two points, 20 µL per tumor) every two days. Beginning on the day of inoculation, mouse weight and tumor volume were monitored every 2 days. Mice were monitored for changes in body weight and sacrificed when values fell below 20% of their initial weight, the survival curve was calculated and the final tumor tissues were isolated for biomedical analysis.

SNK6 cells [6] = assay: ROS formation (CM-H2DCFDA); type: cell-based, human; conditions: 0.5 µM peptide, 6 h, compared with CTL group, n = 5 (Fig. 3a)
Method: Measurement of ROS generation. Treated cells were seeded in a 24-well plate and incubated with 10μM CM-H2DCFDA (Invitrogen) for 45 min at 37°C, and then the intracellular formation of reactive oxygen species (ROS) was measured at excitation/emission wavelengths of 485/530nm using a FLx800 microplate fluorescence reader (Bio-Tek). The data was normalized as arbitrary units (8, 11).

EBV = EBV viral genomes/cell by qPCR in SNK6 cells; type: cell-based; conditions: 0.5 µM peptide, 6 h, vs CTL, n = 4 (Fig. 3i)
Method: Detection of EBV copy number. Genomic DNA was extracted from treated SNK-6 cells or SNK-6 tumor tissue in mice using a QIAamp DNA Mini Kit (Qiagen). The EBV DNA copy number was measured through qPCR using 50ng of total DNA with EBV BMRF1 primers (see Table 1), and the results were normalized using cellular β-actin (primers see Table 1) as an internal control (13, 14). The Namalwa cell line, which contains 2 EBV viral genome copies, was used as a standard to prepare calibration curves for both EBV BMRF1 and β-actin genes, and the EBV viral load was presented as the number of viral genomes per cell (15, 16).

SNK6 cells [7] = conditions: 0.5 µM peptide, 6 h, vs CTL, n = 3 (Fig. 5g)
Method: Immunostaining. […] The cells were then washed three times and the FITC labeled anti-mouse secondary antibody (1:100) was added for blotting for another 1 hour. After thorough washing, the slides were visualized and photographed, the nuclei of cells were stained with 4’,6-diamidino-2-phenylindole dihydrochloride (DAPI, #D9542, from Sigma), and the positive Ki-67 cells were quantitated.

SNK6 cells [8] = assay: 8-OHdG formation (DNA damage ELISA); type: cell-based, human; conditions: 0.5 µM peptide, 6 h, vs CTL, n = 5 (Fig. 3c)
Method: as §3

SNK6 cells [9] = assay: 3-nitrotyrosine formation (ELISA); type: cell-based, human; conditions: 0.5 µM peptide, 6 h, compared with CTL group, n = 5 (Fig. 3b)
Method: Antibodies for β-actin (sc-47778), EBV Ea-D (sc-58121), EBV ZEBRA (BZ1, sc-53904), Ki-67 (sc-101861) and VDAC1 (sc-390996) were obtained from Santa Cruz Biotechnology. Antibodies for HK2 (ab104836), H2AX (ab20669), γH2AX (ab2893) and P-gp (ab129450) were obtained from Abcam. The antibody for HKDC1 (NBP1-82108) was obtained from Novus Biologicals. 3-nitrotyrosine (3-NT) was measured by 3-Nitrotyrosine ELISA Kit (ab116691 from Abcam). Nuclear extracts were prepared using the NE-PER Nuclear and Cytoplasmic Extraction Reagents Kit (Pierce Biotechnology). Protein concentration was measured using the Coomassie Protein Assay Kit (Pierce Biotechnology) per manufacturers’ instructions.

SNK6 cells [10] = assay: Apoptosis rate by TUNEL assay; type: cell-based, human; conditions: 0.5 µM peptide, 6 h, compared with CTL group, n = 5 (Fig. 4h)
Method: as §2

Substance | IC50 (SNK6 cells [1]) | IC50 (MNCs from ENKTL patients) | further results
HAIYPRHITAVAKRLQQAQKEN [Tf-HKC15] | 1.4 ± 0.3 µM | 1.2 ± 0.4 µM | 
HAIYPRH-MFAVHLMAFYFSKLK [Tf-D-HKN15] | > 15 µM | > 15 µM | mouse survival (SNK6 xenograft [2]): little effect; association of HKDC1 with VDAC1 (HKDC1/VDAC1): no effect; γH2AX formation (SNK6 cells [3]): no effect; thymidine incorporation (SNK6 cells [4]): no effect; tumor volumes on day 36 (SNK6 xenograft [5]; intratumoral 50 µM peptide every 2 days from day ~18, day 36, vs CTL): no effect; tumor volumes on day 48 (SNK6 xenograft [5]; intratumoral 50 µM peptide every 2 days from day ~18, day 48, vs CTL): no effect; ROS formation (SNK6 cells [6]): no effect; EBV genome copies (EBV): no effect; cell proliferation by quantitation of Ki-67 positive cells (SNK6 cells [7]): no effect; 8-OHdG formation (SNK6 cells [8]): no effect; 3-nitrotyrosine formation (SNK6 cells [9]): no effect; apoptosis rate increase (SNK6 cells [10]): no effect
GKPILFF-LQQAQKEN [PAS-D-HKC8] | 1.3 ± 0.3 µM | 1.1 ± 0.3 µM | 
RQIKIWFQNRRMKWKKLQQAQKEN [Antp-HKC8] | 1.3 ± 0.3 µM | 1.3 ± 0.4 µM | 
HAIYPRHEILNKEKK [Tf-Scram, reference compound] | > 15 µM | > 15 µM | 
RQIKIWFQNRRMKWKK-LQQAQKEN [Antp-D-HKC8] | 1.2 ± 0.4 µM | 1 ± 0.3 µM | 
GYGRKKRRQRRRG-LQQAQKEN [TAT-D-HKC8] | 1.7 ± 0.5 µM | 1.5 ± 0.7 µM | 
HAIYPRHLQQAQKEN [Tf-HKC8] | 0.7 ± 0.2 µM | 0.5 ± 0.2 µM | 
GKPILFFLQQAQKEN [PAS-HKC8] | 1.4 ± 0.3 µM | 1.4 ± 0.4 µM | 
GYGRKKRRQRRRGLQQAQKEN [TAT-HKC8] | 2 ± 0.4 µM | 1.9 ± 0.4 µM | 
HAIYPRH-EILNKEKK [Tf-D-Scram, reference compound] | > 15 µM | > 15 µM | 
HAIYPRHMFAVHLMAFYFSKLK [Tf-HKN15] | > 15 µM | > 15 µM | 
